Source: patent publication US5476944A, “Derivatives of cyclic phenolic thioethers” (G. D. Searle & Co., priority 1994, dated 1995)
Like-named read-outs stand apart in the source and are kept apart here.

How the values were obtained:
[1] = molecular target: T1, 5-lipoxygenase (Rattus norvegicus, UniProt P12527); experiment: Inhibition of 5-lipoxygenase, in vitro (5-HETE formation, RBL-1 homogenate supernatant); format: biochemical
T1 construct: The 100,000×g supernatant fraction of Rat Basophilic Leukemia Cell Homogenate (RBL-1); endogenous in cells; host or cells: RBL-1 (rat basophilic leukemia) cells, 100,000xg supernatant of homogenate
T1 sequence (P12527 1-673): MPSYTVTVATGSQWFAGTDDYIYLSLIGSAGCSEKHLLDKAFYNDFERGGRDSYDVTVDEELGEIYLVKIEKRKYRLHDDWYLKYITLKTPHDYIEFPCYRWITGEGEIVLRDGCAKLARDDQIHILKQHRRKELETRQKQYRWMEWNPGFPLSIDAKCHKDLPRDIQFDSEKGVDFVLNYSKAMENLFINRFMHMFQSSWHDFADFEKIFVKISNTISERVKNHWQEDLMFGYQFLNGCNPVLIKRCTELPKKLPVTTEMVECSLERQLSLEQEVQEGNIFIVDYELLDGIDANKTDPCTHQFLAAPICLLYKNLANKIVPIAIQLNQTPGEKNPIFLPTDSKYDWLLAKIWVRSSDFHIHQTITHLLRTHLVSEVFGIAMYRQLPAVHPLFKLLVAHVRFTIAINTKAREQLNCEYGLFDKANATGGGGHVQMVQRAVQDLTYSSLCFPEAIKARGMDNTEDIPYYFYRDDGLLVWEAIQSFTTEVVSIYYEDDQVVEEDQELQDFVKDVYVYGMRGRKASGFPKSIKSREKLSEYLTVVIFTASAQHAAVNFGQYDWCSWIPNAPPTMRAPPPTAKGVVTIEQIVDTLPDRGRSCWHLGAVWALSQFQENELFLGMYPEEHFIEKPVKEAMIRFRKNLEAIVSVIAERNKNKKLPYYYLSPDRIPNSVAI
Method: The compounds of the invention are evaluated with respect to 5-lipoxygenaseinhibition according to the following assay procedure.
Inhibition of 5-lipoxygenase, in vitro:
The 100,000×g supernatant fraction of Rat Basophilic Leukemia Cell Homogenate (RBL-1) serves as a 5-lipoxygenase enzyme source. The enzyme is incubated with [1-^4 C)-arachidonic acid and Ca++ in the presence and absence of test compound. The product of 5-lipoxygenase, 5-hydroxyeicosatetraenoic acid (5-HETE), is separated by thin-layer chromatography and measured by radioactivity. A compound inhibiting 5-HETE synthesis by 30% or more is considered active at that concentration.
For comparison the compound of Formula XX, a known 5-lipoxygenase inhibitor described in U.S. Pat. No. 4,755,524 was used: [drawing 29] (±)[2S*-[[3,5-bis(1,1-dimethylethyl)-4-hydroxyphenyl]thio]-1R*-methylpro poxy]acetic acid.

[2] = test system: Human neutrophil superoxide generation; experiment: Human neutrophil superoxide generation, FMLP-induced; format: cell-based
Method: The compounds of the present invention are evaluated with respect to superoxide modulating activity according to the following assay procedure:
Human neutrophil superoxide generation:
Superoxide generation by formyl-methionyl-leucyl-phenylalanine (FMLP)-stimulated neutrophils was quantitated by the reduction of cytochrome C (Badwey, J. A., Curnutte, J. T. and Karnovsky, M. L., cis-Polyunsaturated fatty acids induce high levels of superoxide production by human neutrophils. J. BIOL. CHEM. 256: 12640-12643, 1981, which is incorporated herein by reference.) To 5 million neutrophils in 2.85 ml of Krebs-Ringer phosphate buffer, pH 7.2, 50 ul of inhibitor (in 10% DMSO/buffer), and 50 ul ferricytochrome C (5 mM, stock) were added and preincubated for 3 minutes at 37° C. Absorption measurements at 550 nm were recorded at start of preincubation. Fifty ul FMLP (6 uM, stock) was added to initiate reaction. A plateau was reached within 3 minutes and this reading minus the initial reading (before addition of FMLP) was used to calculate nanomoles of superoxide generated based on a molar extinction coefficient of 2.1×10^4 cm^-1 mole^-1.
Isolation of human neutrophils:
Human neutrophils were isolated from freshly drawn blood of healthy donors. […] The red cell lysing procedure was repeated, the cells suspended in appropriate buffer (depending on assay) and counted.

[3] = molecular target: T2, Sheep Seminal Vesicle Microsome Cyclooxygenase (Ovis aries, UniProt P05979); experiment: Inhibition of Sheep Seminal Vesicle Microsome Cyclooxygenase; format: biochemical; settings: for IC50: sheep seminal vesicle microsomes
T2 construct: Lyophilized ovine microsome (approximately 1 mg) suspended in 2.9 ml Tris-HCl buffer; from tissue; host or cells: sheep seminal vesicle microsomes, lyophilized
T2 sequence (P05979 25-600): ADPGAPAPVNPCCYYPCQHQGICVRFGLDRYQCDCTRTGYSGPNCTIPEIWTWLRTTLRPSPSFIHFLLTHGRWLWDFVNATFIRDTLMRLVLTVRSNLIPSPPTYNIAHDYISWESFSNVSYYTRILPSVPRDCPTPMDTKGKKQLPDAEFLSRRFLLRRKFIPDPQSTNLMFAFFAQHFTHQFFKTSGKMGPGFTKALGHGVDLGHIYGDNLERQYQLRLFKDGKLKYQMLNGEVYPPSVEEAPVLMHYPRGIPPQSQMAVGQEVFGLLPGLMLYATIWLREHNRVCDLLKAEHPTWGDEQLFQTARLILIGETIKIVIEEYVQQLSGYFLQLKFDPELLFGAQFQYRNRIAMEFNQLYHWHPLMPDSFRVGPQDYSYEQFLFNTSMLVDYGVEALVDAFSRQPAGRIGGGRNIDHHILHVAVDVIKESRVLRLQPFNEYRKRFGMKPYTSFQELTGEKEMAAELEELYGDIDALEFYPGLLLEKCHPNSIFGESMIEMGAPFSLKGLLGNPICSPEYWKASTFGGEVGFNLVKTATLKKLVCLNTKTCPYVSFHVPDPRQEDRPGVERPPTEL
Method: The compounds of the present invention evaluated with respect to cyclooxygenase inhibition according to the following assay procedure. Inhibition of Sheep Seminal Vesicle Microsome Cyclooxygenase: This assay was based on oxygen consumption during conversion of arachidonic acid to prostaglandin G2 catalyzed by cyclooxygenase BIOCHEM. 11:3276-3285 (1972), which is incorporated herein by reference. Lyophilized ovine microsome (approximately 1 mg) suspended in 2.9 ml Tris-HCl buffer, pH 8.2, containing 0.7 mM phenol were used as source of arachidonate cyclooxygenase. The inhibitor, 50 μl in DMSO, was added and the mixture was preincubated for 5 minutes at 37° C. Fifty μl of arachidonic acid (final concentration 50 μM) was added to start the reaction. The slopes of the initial rates of oxygen uptake, in the presence and absence of inhibitor, were compared to determine reaction inhibition. Percent inhibition was computed using the following formula: [formula]

[4] = test system: Rats; experiment: Chronic adjuvant-induced polyarthritis test; format: in vivo; settings: intragastric; for minimal effective dose: Rattus norvegicus, po, 456 h, 18 days, rats, read-out: Minimum dose to result in a statistically significant reduction [p < 0.05] in the paw volume/body weight ratio; for % Inhibition in the paw volume to body weight ratio: at minimum significant dose 25 mg/kg/day, day 19, rats
Method: Chronic adjuvant-induced polyarthritis test:
Rats [50-70 gm] were weighed, ear tagged and intradermally inoculated in the tail base with 2.0 mg of heat killed M. butyricum suspended in 0.05 ml of white paraffin oil [n=12-15 per group]. Compounds were intragastrically administered beginning on the day of inoculation and continued for 18 days. Each daily dose was split [dose volume=0.5 ml/100 gm] and given approximately 7 hours apart. Animals were weighed every 3 days, and the dose was adjusted accordingly. On day 19, animals were sacrificed by inhalation of CO2, weighed, and total hind paw volume was measured by the displacement of water with a plethysmometer (Ugo Basile, Varese, Italy). A group of age-matched naive rats were included. These rats, designated "normal," were not inoculated with adjuvant or gavaged with vehicle.
For individual experiments, the paw volume/body weight ratios for each dose were compared to the ratio for the vehicle treated control group by a two-tailed Dunnett's t-test (p ≤0.05). The Dunnett's test was preceded by a Bartlett's test of variance homogeneity across the dose groups. If the Bartlett's test was significant, an appropriate variance stabilizing transformation was applied to the data, and the Dunnett's test was performed on the transformed data.

[5] = test system: COX II enzyme; settings: metabolite of nabumetone; cited from earlier work
[6] = relative to histamine; cited from earlier work
[7] = in vivo; cited from earlier work
[8] = insertion of the thio group; cited from earlier work

In the case of `C[C@H](Sc1cc(C(C)(C)C)c(O)c(C(C)(C)C)c1)[C@@H](C)OCC(=O)O` (relative stereo) [Formula XX, (±)[2S*-[[3,5-bis(1,1-dimethylethyl)-4-hydroxyphenyl]thio]-1R*-methylpropoxy]acetic acid, reference compound], the “5-lipoxygenase inhibition (in words)” value [1] is reported as “inhibited both superoxide generation and 5-lipoxygenase” and the “superoxide generation (in words)” value [2] is reported as “inhibited both superoxide generation and 5-lipoxygenase”.
With `CC(C)(C)c1cc(S[C@@H]2CCCC[C@H]2OCC(=O)O)cc(C(C)(C)C)c1` (relative stereo) [Example 17, trans-[[2-[[3,5-bis(1,1-dimethylethyl)phenyl]thio]cyclohexyl]oxy]acetic acid] the IC50 [3] was 3.8 µM, the minimal effective dose [4] was 25 mg/kg/day and the “% Inhibition in the paw volume to body weight ratio” value [4] was 50.8%.
For `CC(C)(C)c1cc(S[C@@H]2CCCC[C@H]2SCC(=O)O)cc(C(C)(C)C)c1` (relative stereo) [Example 5, trans-[[2-[[3,5-bis(1,1-dimethylethyl)phenyl]thio]cyclohexyl]thio]acetic acid], the IC50 [3] was 3.1 µM, the minimal effective dose [4] was 25 mg/kg/day and the “% Inhibition in the paw volume to body weight ratio” value [4] was 64.4%.
For `COc1ccc2cc(CC(=O)O)ccc2c1` [6-methoxy-2-napthylacetic acid], the “selective inhibition of COX II (in words)” value [5] is given as “selectively inhibit the COX II enzyme”.
For `CCCCC/C=C\C\C=C/C=C/C=C/[C@@H](SC[C@H](NC(=O)CC[C@H](N)C(=O)O)C(=O)NCC(=O)O)[C@@H](O)CCCC(=O)O` [LTC4], the “potency versus histamine in causing long lasting bronchoconstricting effects” value [6] is given as “at least 100 times”.
For `CS(=O)(=O)Nc1ccc([N+](=O)[O-])cc1OC1CCCCC1` [N-(2-cyclohexyloxy-4-nitrophenyl)methanesulfonamide], the “anti-inflammatory activity (in words)” value [7] is given as “anti-inflammatory” and the “gastric side effects (in words)” value [7] is given as “lacks gastric side effects”.
In the case of `CC(C)(C)c1cc(SC2CCOC2=O)cc(C(C)(C)C)c1O` (stereo not shown) [Compound 3], the “anti-inflammatory activity (in words)” value [8] is listed as “loss of anti-inflammatory activity”.
In the case of `O=C(O)CS[C@@H]1CCCC[C@H]1Sc1ccccc1` (relative stereo) [Example 7, trans-[[2-(phenylthio)cyclohexyl]thio]acetic acid], the “5-lipoxygenase inhibition (in words)” value [1] is reported as “did not inhibit either 5-lipoxygenase or cyclooxygenase”, the “superoxide generation (in words)” value [2] is reported as “did inhibit superoxide generation” and the “cyclooxygenase inhibition (in words)” value [3] is reported as “did not inhibit either 5-lipoxygenase or cyclooxygenase”.
